One data set deals with CDK8/Cyclin C (Homo sapiens (Human), UniProt P49336). Kind of data set: LanthaScreen binding to recombinant CDK8/Cyclin C. As to conditions: TR-FRET, Tracer 236 10 nM, CDK8/Cyclin C 5 nM. The protocol:
Capability of compounds of the present invention to bind to CDK8 protein was detected using LanthaScreen (ThermoFisher) assay. We detected FRET signal proportional to the amount of CDK8-bound fluorescently-labeled ligand (Tracer 236) that competes with inhibitor for ATP binding site. We carried out the measurements in a 15 μl reaction volume using a 384-well plate (Corning, #CLS4513). Enzyme CDK8/Cyclin C (ThermoFisher, #PR7261B) was mixed with antibodies Anti-His-tag-Biotin (ThermoFisher, #PV6090), Streptavidin-Eu (ThermoFisher, #PV6025), the resulting mixture was added to plate wells (5 MKπ/well). Final concentrations of substances were as follows: CDK8/Cyclin C—5 nM, Streptavidin-Eu—3 nM, Anti-His-tag-Biotin—3 nM. Staurosporine (S4400, Sigma) was used as a reference inhibitor, and 0.1% solution of dimethyl sulphoxide (DMSO) in reaction buffer was used as a blank, the reaction buffer comprised 250 mM HEPES (pH 7.5), 50 mM MgCl2, 5 mM EGTA, and 0.05% Brij-35.
The inhibitors and controls in question were added to corresponding wells (5 μl/well). The plate was incubated at room temperature for 20 minutes. After incubating, 5 μl/well of tracer solution Alexa Fluor-647 (Kinase Tracer 236, ThermoFisher, #PV5592)) was added to the wells. Final concentration of tracer was 10 nM. Reaction buffer, instead of tracer solution, was used as a negative control. The plate was incubated for 40 minutes at 25° C., TR-FRET signal was then measured according to the manufacturer's guidelines on SPARK20 plate reader (Tecan, Switzerland), and the value was converted to the amount of kinase-bound tracer. IC50 values were calculated using SparkControl Magellan 1.2 software (Tecan, Switzerland) approximating experimental points by four-parameter logistic model with the optimization by Levenberg-Marquardt (Table 5).

The test system of the next data set is KG-1 cells. Kind of data set: Antiproliferative activity, KG-1 cells (AlamarBlue). The class given is cell-based. As to conditions: Homo sapiens, KG-1, 120 h, 120 h incubation. The protocol: (§1) Antiproliferative activity of CDK8 inhibitors according to the present invention was measured in a cell-based test on continuous cell cultures MV4-11 (biphenotypic myelomonocytic leukemia, ATCC® CRL-9591™), KG-1 (acute myeloid leukemia, ATCC® CCL-246™) using a vital stain AlamarBlue (ThermoFisher, #DAL1100). The cells were grown in RPMI-1640 (PanEco, #C330p) medium with addition of 10% FBS (Gibco, #16140-071); washed and resuspended in culture medium with 10% FBS (Gibco, #16140-071) in 96-well culture plates (Corning, #3599) with ≈10×10^3 cells in […] of medium per well. The compounds in question were dissolved in DMSO and diluted with a medium with 10% FBS (Gibco, #16140-071) to a final concentration ranging from 0 to 100 μM. […] of diluted compounds were then added to each well (final DMSO concentration was less than 1%) and incubated under 5% CO2 atmosphere at 37° C. for 120 h. After incubating, 15 μL/well of AlamarBlue (ThermoFisher, #DAL1100) reagent was added, contents of plates were mixed in an orbital shaker (Biosan, Latvia) and further incubated for 3-5 h at 37° C. under 5% CO2 atmosphere. Number of living cells was estimated using a microplate spectrophotometer (Tecan Infinite M200Pro, Switzerland) measuring fluorescent signal at the excitation wavelength (λEx) of 540 nm and emission wavelength (λEm) of 590 nm.
(§2) IC50 values were calculated using Magellan 7.2 software (Tecan, Switzerland) approximating experimental points by four-parameter logistic model with the optimization by Levenberg-Marquardt (Table 6).
(In general: Alamar Blue is a resazurin reagent that responds to reducing activity.)

Data set [1] is described as follows: Enzyme stability in human liver microsomes (Phase I). The class given is in vitro ADME. As to conditions: pH 7.4; 0.5 mg/mL pooled human liver microsomes, 10 μM compound, 37° C. The protocol:
Measuring of enzyme stability of the present compounds enabled estimation of their stability towards the action of Phase I biotransformation enzymes.
The rate of enzymatic decomposition of a compound was detected by incubating the reaction mixture in a dry block heater at 37° C.; the reaction mixture contained 0.5 mg/mL of pooled human liver microsomes (XenoTech, USA, cat #H6010), 10 μM of a compound, 2 mM β-nicotinamide adenine dinucleotide (Carbosynth, UK, cat #NN10871) and 4 mM of magnesium chloride in 0.1M sodium phosphate buffer (pH=7.4). The reaction was quenched with acetonitrile (100 μL of acetonitrile/100 μL of the reaction mixture). After quenching, the samples were centrifuged at 10000 rpm for 10 minutes. Supernatant fluid was tested by chromatographic technique using Agilent1200 (Agilent, USA). Chromatographic analysis was performed in a gradient elution regime with a flow rate of 1 mL/min. A graph of the logarithm of substance's peak area as a function of time was made. The dependent factor of the line corresponded to the elimination rate constant K based on which the drug's half-lif½e T and degradation rate CLint were calculated:
Based on the data obtained, candidates' enzyme stability in human liver microsomes was determined.

Another data set relates to MV4-11 cells. Kind of data set: Antiproliferative activity, MV4-11 cells (AlamarBlue). The class given is cell-based. Conditions: Homo sapiens, 120 h incubation, read-out: MV-4-11 IC50. The protocol: as §1, §2
Data set [2] in a line: Enzyme stability in human liver S9 fractions (Phase II). The class given is in vitro ADME. As to conditions: pH 7.4; 0.5 mg/mL pooled human liver S9 fractions, 10 μM compound, 37° C.; read-out: Enzyme stability Liver S9 fraction CLint. The protocol: Measuring of enzyme stability of the present compounds enabled estimation of their stability towards the action of Phase II biotransformation enzymes.
Enzyme degradation rate was measured by incubating the reaction mixture in a dry block thermostat at 37° C., said reaction mixture comprising 0.5 mg/mL of pooled human liver S9 fractions (XenoTech, USA, cat #H0610), 10 μM compound, 2 mM β-nicotinamide adenine dinucleotide (Carbosynth, UK, cat #NN10871) and 4 mM magnesium chloride in 0, 1 M sodium-phosphate buffer, pH=7, 4. The reaction was quenched with acetonitrile (100 μL of acetonitrile/100 μL of the reaction mixture). After quenching, the samples were centrifuged at 10000 rpm for 10 minutes. Supernatant fluid was tested by chromatographic technique using Agilent1200 (Agilent, USA). Chromatographic analysis was performed in a gradient elution regime with a flow rate of 1 mL/min A graph of the logarithm of substance's peak area as a function of time was made. The dependent factor of the line corresponded to the elimination rate constant K based on which the drug's half-life T½ and degradation rate CLint were calculated:
Based on the data obtained, candidates' enzyme stability in human liver S9 fractions was determined.

A short description of data set [3]: Stability of the compounds in human blood plasma. The class given is in vitro ADME. Conditions: pooled human blood plasma, 10 μM, 4 hours at 37° C. The protocol: To assess the blood plasma stability of the compounds, we used pooled human blood plasma taken from ten healthy donors. The initial candidate solution (10 mM in DMSO) was diluted with pooled blood plasma to a concentration of 10 μm (test solution). The test solution was incubated in a dry block thermostat for 4 hours at 37° C. HPLC with Agilent 1200 liquid chromatography system (Agilent, USA) was employed to determine peak areas of the compounds in test samples, said peak areas corresponding to the initial test time (prior to incubation) and the final test time (after incubation in a dry block thermostat for 4 hours at 37° C.), proteins were preliminarily precipitated with acetonitrile. Chromatographic analysis was performed in a gradient elution regime with a flow rate of 1 mL/min Substance amount in % in a sample after thermostatting was determined.
The stability of the compounds was estimated. The compounds described herein show at least 90% chemical stability, i.e. they are chemically stable in human blood plasma (Table 2).

Data set [4] is described as follows: General cytotoxicity on HepG2 cells. The class given is cell-based. As to conditions: human, 72 h incubation. The protocol:
The CC50 values were determined in the test for General cytotoxicity On HepG2 cells (hepatocellular carcinoma, ATCC® HB-8065™). Cells per well were seeded in 96-well plates (Corning, #3599) at a concentration ≈20×10^3 cells in 100 μL of medium and incubated for 72 h with added compounds within the range of concentrations of 200 to 0.78 μM. Cell viability was assessed using the above method.

Four compounds from patent US11840531B2, “CDK8/19 inhibitors” (JOINT STOCK COMPANY “BIOCAD”, priority 2018, dated 2023) can be followed below.

Chain of CDK8/Cyclin C (P49336 whole entry): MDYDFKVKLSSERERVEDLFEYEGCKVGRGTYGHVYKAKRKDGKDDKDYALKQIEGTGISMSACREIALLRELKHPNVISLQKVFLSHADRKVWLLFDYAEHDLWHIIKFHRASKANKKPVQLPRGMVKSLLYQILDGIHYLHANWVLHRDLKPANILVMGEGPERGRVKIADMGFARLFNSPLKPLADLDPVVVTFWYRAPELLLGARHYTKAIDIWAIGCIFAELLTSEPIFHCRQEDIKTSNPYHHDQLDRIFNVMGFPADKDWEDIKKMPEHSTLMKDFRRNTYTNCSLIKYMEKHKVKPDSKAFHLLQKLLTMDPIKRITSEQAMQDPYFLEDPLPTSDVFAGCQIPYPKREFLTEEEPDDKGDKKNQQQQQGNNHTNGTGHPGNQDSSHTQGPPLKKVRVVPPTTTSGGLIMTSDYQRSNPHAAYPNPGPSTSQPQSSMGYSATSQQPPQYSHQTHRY
Chain of CDK8/Cyclin C (P24863 whole entry partner): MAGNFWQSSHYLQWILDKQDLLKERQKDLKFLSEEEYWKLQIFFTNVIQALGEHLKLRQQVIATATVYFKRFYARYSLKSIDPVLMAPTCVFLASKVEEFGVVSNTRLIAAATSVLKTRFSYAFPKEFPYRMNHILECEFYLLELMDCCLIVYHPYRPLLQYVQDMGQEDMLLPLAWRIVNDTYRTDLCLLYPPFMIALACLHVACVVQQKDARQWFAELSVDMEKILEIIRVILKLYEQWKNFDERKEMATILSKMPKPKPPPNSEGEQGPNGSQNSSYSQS

What is called IC50 is the midpoint of a concentration-inhibition curve. For orientation: CC50 means the concentration at which the toxic effect on the cells reaches its halfway point. Read a high CC50 as lower toxicity to the cells. For the compound `CN(C)C(=O)Cn1cc(-c2ccc(-c3cnc(N)c4ncc(C(=O)NC5CC5)cc34)cc2)cn1` [Compound 3.46, 8-amino-N-cyclopropyl-5-(4-(1-(2-(dimethylamino)-2-oxoethyl)-1H-pyrazole-4-yl)phenyl)-1,7-naphthyridine-3-carboxamide], the IC50 at CDK8/Cyclin C was found to be 1.11 nM; with KG-1 cells it was 1.1 nM; in the data set on MV4-11 cells it was 0.7 nM. Also, the microsomal CLint at 10 μM in data set [1] was 2.6 µL/min/mg; in data set [2], 0.5 µL/min/mg. In data set [3], the “Chemical stability in human blood plasma 4 h, %” value (“Chemical stability … %” below) is recorded as 96.5%. Besides, the CC50 at 72 h in data set [4] is greater than 100000 nM.
On to `CN1CCN(C(=O)Cn2cc(-c3ccc(-c4cnc(N)c5ncc(C(=O)NC6CC6)cc45)cc3)cn2)CC1` [Compound 3.47, 8-amino-N-cyclopropyl-5-(4-(1-(2-(4-methylpiperazin-1-yl)-2-oxoethyl)-1H-pyrazole-4-yl)phenyl)-1,7-naphthyridine-3-carboxamide], for which the IC50 on CDK8/Cyclin C turned out to be 1.1 nM; in the data set on KG-1 cells, 3.3 nM; in the data set on MV4-11 cells, 1.1 nM. Further, the figures for the microsomal CLint at 10 μM in data set [1] and in data set [2] were 5.6 µL/min/mg and 1.5 µL/min/mg, respectively. Further, the “Chemical stability … %” value in data set [3] worked out at 96.5%. In data set [4], this compound showed a half-maximal cytotoxic concentration (CC50) at 72 h greater than 100000 nM.
As for `CN1CCN(C(=O)c2cnc3c(N)ncc(-c4ccc(-c5cnn(CC(=O)N(C)C)c5)cc4)c3c2)CC1` [Compound 3.49, 2-(4-(4-(8-amino-3-(4-methylpiperazine-1-carbonyl)-1,7-naphthyridine-5-yl)phenyl) -1H-pyrazole-1-yl)-N,N-dimethylacetamide], the IC50 on CDK8/Cyclin C came out at 1.85 nM; in the data set with KG-1 cells, 12.9 nM; with MV4-11 cells, 2.8 nM. Besides, the values for the microsomal CLint at 10 μM in data set [1] and in data set [2] were 7 µL/min/mg and 1.4 µL/min/mg, respectively. For the same compound, the “Chemical stability … %” value in data set [3] is 100.0%. In data set [4], this compound yielded a CC50 at 72 h greater than 100000 nM.
Regarding `CN1CCN(C(=O)Cn2cc(-c3ccc(-c4cnc(N)c5ncc(C(=O)N6CCC6)cc45)cc3)cn2)CC1` [Compound 3.53, 2-(4-(4-(8-amino-3-(azetidine-1-carbonyl)-1,7-naphthyridine-5-yl)phenyl)-1H-pyrazole-1-yl)-1-(4-methylpiperazine-1-yl)ethan-1-one], the IC50 on CDK8/Cyclin C stood at 1.01 nM; with KG-1 cells it was 2.4 nM; in the data set with MV4-11 cells, 1.3 nM. Further, the figures for the microsomal CLint at 10 μM in data set [1] and in data set [2] were 7.8 µL/min/mg and 7.1 µL/min/mg, respectively. Moreover, in data set [3], the “Chemical stability … %” value amounted to 100.0%. This compound also returned a CC50 at 72 h in data set [4] of roughly 90000 nM.
